{
  "source": "patent US11264117B2",
  "about": "“Neoantigen identification using hotspots” (Gritstone bio, Inc., priority 2017, dated 2022)",
  "test_system": "IFNγ-producing T-cells",
  "assay": "IFN-gamma ELISpot on in vitro expanded (IVS) NSCLC patient PBMCs with patient-specific neoantigen peptide pools or individual peptides",
  "type": "cell-based, human",
  "conditions": "NSCLC patient PBMCs after IVS culture",
  "procedure": "To do so, archival FFPE tumor biopsies and 5-30 ml of peripheral blood were analyzed from 9 patients with metastatic NSCLC undergoing anti-PD(L)1 therapy (Supplementary Table 2: Patient demographics and treatment information for N=9 patients studied in FIGS. 17A-C. Key fields include tumor stage and subtype, anti-PD1 therapy received, and summary of NGS results.). […] The full MS model was applied to prioritize 20 neoepitopes per patient for testing against pre-existing anti-tumor T-cell responses. To focus the analysis on likely CD8 responses, the prioritized peptides were synthesized as 8-11mer minimal epitopes (Methods), and then peripheral blood mononuclear cells (PBMCs) were cultured with the synthesized peptides in short in vitro stimulation (IVS) cultures to expand neoantigen-reactive T-cells (Supplementary Table 3). After two weeks the presence of antigen-specific T-cells was assessed using IFN-gamma ELISpot against the prioritized neoepitopes. In seven patients for whom sufficient PBMCs were available, separate experiments were also performed to fully or partially deconvolve the specific antigens recognized. The results are depicted in FIGS. 17A-C and 18A-21.\nFIG. 17A depicts detection of T-cell responses to patient-specific neoantigen peptide pools for nine patients. […]",
  "note": "Ends that are not written are not given here.",
  "data": [
    {"sequence": "GTKKDVDVLK", "values": [
      {"measurement": "T-cell recognition of individual peptide", "value": "recognized by CD8 T-cells"}
    ]}
  ]
}
